Laboratory results reported in patent publication US20260176274A1, “ENAMINE N-OXIDE TOOLS FOR TARGET IDENTIFICATION APPLICATIONS” (DANA-FARBER CANCER INSTITUTE, INC., priority 2022, published 2026).

Key:
BRD4 = target: T1, BRD4 (Homo sapiens, UniProt O60885); assay: In cellulo BARS labeling in live HEK293T cells, immunoblot against BRD4; assay type: cell-based; conditions: probe 5 μM, B2(OH)4 100 μM 10 min
T1 construct: In Cellulo BARS Labeling of Endogenous Target Proteins; endogenous in cells; host or cells: HEK293T
Method: HEK293T cells were cultured in DMEM containing 10% FBS (Sigma), 100 units/mL penicillin, and 0.1 mg/mL streptomycin (Sigma) in a humidified chamber at 37° C. under an ambient atmosphere with 5% CO2. After culturing to >80% confluency in 150 mm plates, the plates were removed from the incubator, the media was aspirated, and the cells were trypsinized at 37° C. with 0.25% trypsin, 0.1% EDTA in HBSS (3 mL). After 3 min, complete growth medium (7 mL) was added to the detached cells, and the cell suspension was transferred to a 50 mL centrifuge tube. Cells were pelleted (400×g, 4 min, 23° C.) and washed with 2×20 mL PBS, pH 7.4. At this point, the density of the cell suspension in PBS was determined by the trypan blue exclusion method. The cells were pelleted once more, and the volume of PBS was adjusted to produce a cell suspension with a final density of 2×10^7 cells/mL. The cell suspension was aliquoted into 2 mL microcentrifuge tubes (3×1 mL, 2×10^7 cells each). […] Competitor 21′ (50 μM final concentration, from a 500 mM stock in DMSO) was also added to the third tube. The samples were incubated at 37° C. with end-over-end rotation. After 2 h of incubation, the cells were pelleted (400×g, 4 min, 23° C.) and washed once with PBS, pH 7.4.

BRD2/3/4 [1] = target: T2, BRD2/3/4 (Homo sapiens, UniProt O60885); assay: Pulldown-MS chemoproteomics in HEK293T cell lysate, (+)-JQ1 probe; assay type: binding; conditions: filter 3 quantified peptides in 3 replicates
T2 construct: In Vitro BARS Labeling of Endogenous Target Proteins in Cell Lysate; endogenous in cells; host or cells: HEK293T lysate
Method: (§1) The same procedure as the “Streptavidin pull-down” was followed up to the wash steps. After the final wash, the supernatant was completely removed. Formamide elution buffer (95% v/v formamide, 5% v/v 100 mM sodium acetate, pH 10, 50 μL) was then added to the beads with gentle mixing. The beads were heated to 95° C. for 10 min, pelleted, and the supernatant was removed while hot and then allowed to cool to rt. The formamide elution was repeated a second time for a combined eluate volume of approximately 100 μL. The eluate samples were then submitted to the Dana-Farber TPD Core facility for further processing. […]
(§2) Peptides were analyzed on an Ultimate™ 3000 RSLCnano system coupled to a Tribrid series mass spectrometer (Thermo Fisher Scientific™). […]
(§3) RAW file processing, false discovery rate filtering (<1%), and protein roll-up and MS1 intensity-based label-free quantification (Minora algorithm) were achieved using Proteome Discoverer 2.5 (Thermo Fisher Scientific™). […] Peptides were quantified by precursor ion abundance and summed across proteins.
(§4) Proteins were filtered to include those with three or more unique peptides quantified across four replicate treatments, unless otherwise stated. […] All peptides of target proteins quantified at the single peptide level were manually inspected to ensure accuracy in quantification.

BRD2/3/4 [2] = assay: as above; assay type: binding, human; conditions: filter 1 quantified peptide in 3 replicates; against competitor or enantiomer controls
Method: as §1, §2, §3, §4

`C#CCCC[N+](C)([O-])/C(Br)=C/C(Cl)CCCC(=O)NCCCCCCNC(=O)C[C@@H]1N=C(c2ccc(Cl)cc2)c2c(sc(C)c2C)-n2c(C)nnc21` (stereo partly drawn) [22′a, (Z)-1-Bromo-3-chloro-7-((6-(2-((S)-4-(4-chlorophenyl)-2,3,9-trimethyl-6H-thieno[3,2-f][1,2,4]triazolo[4,3-al][1,4]diazepin-6-yl)acetamido)hexyl)amino)-N-methyl-7-oxo-N-(pent-4-yn-1-yl)hept-1-en-1-amine oxide] was tested, and the “target identification in live HEK293T cells (BRD4)” value (BRD4) was “successfully executed”, the chemoproteomics protein identified (BRD2/3/4 [1]) was “BRD4 was identified” and the chemoproteomics hits (BRD2/3/4 [2]) was “BRD2/3/4 were identified as hits”.
